Results reported in patent US5919457A, “TXU-5/B53-PAP antiviral biotherapeutic agent for the treatment of AIDS” (priority 1996, dated 1999).
Several values for one entry are separate records, joined by “and”; a condition that tells them apart may be missing. Equal entries are not always repeated.

What was measured:
[1] = tested on: HIV-1 isolate G-9106 (zidovudine-resistant); details: read-out: IC50 (concentration at which 50% of the reverse transcriptase activity is inhibited); cited from earlier work
HIV-1 [2] = tested on: HIV-1; set-up: species or system Hu-PBL-SCID mice; details: mouse, in vivo
HIV-1 [3] = tested on: HIV-1; set-up: species or system Hu-PBL-SCID mice; details: mouse, in vivo; remark: listed apart in the source
Method: Mutant C.B 17 mice are used as model systems to examine the in vivo homing, engraftment, and growth patterns of normal and malignant human hematopoictic cells. Lapidot et al., Blood, 80, 32a (1992). […] Mosier et al., Science, 251, 791 (1991). […] Mosier et al., cited supra. Hu-PBL-SCID mice were generated as described previously. Mosier et al., cited supra. Non-toxic doses of TXU-5/B53-PAP (20%-50% of LD10) were administered intraperitoneally by injecting half of the total dose as a bolus and delivering the remainder i.p. over 2 weeks using Alzet micro-osmotic pumps.
Two weeks after infection with HIV-1, mice were electively killed and fresh peritoneal lavage cells as well as spleen cells were isolated, cocultured with phytohemagglutinin(PHA)-stimulated human peripheral blood mononuclear cells from an HIV-1 antibody negative donor, and culture supernatants were tested every 3-4 days for a maximum of 28 days for the presence of HIV-1 antigen with a commercially available enzyme immunoassay (Abbott Laboratories, North Chicago, Ill.) that detects primarily the core p24 antigen of HIV-1, as previously described. Goudsmit et al., J. Infectious Diseases, 155, 558 (1987). In addition to this culture method, DNA was also isolated from the peritoneal lavage cells as well as splenocytes for detection of HIV-1 DNA by PCR amplification of a 115 b.p. sequence in the gag region of the HIV-1 genome using two 29-base oligonucleotide primers, SK38 and SK39, that flank the region to be amplified. Ou C-Y et al., Science, 239, 295 (1988) DNA samples were also examined for the presence of human DNA by PCR amplification of a 110-bp fragment from the first exon of the human β-globin gene using two 20-base oligonucleotide primers, PCO3 and PCO4, that flank the region to be amplified, as previously described by Uckun et al. in Blood, 79, 2201 (1992).

[4] = tested on: HIV-1 isolate G-6912 (zidovudine-resistant); details: read-out: IC50 (concentration at which 50% of the reverse transcriptase activity is inhibited); cited from earlier work

For `Cc1cn([C@H]2C[C@H](N=[N+]=[N-])[C@@H](CO)O2)c(=O)[nH]c1=O` [ZDV, zidovudine], the IC50 [1] is listed as 8.7 µM, the “gp120 on CD4+ lymphocytes from the peritoneal cavity (flow cytometry)” value (HIV-1 [2]) is listed as “presence of gpl120 on CD4+ cells” and the “Hu-PBL-SCID mice HIV-1 negative” value (HIV-1 [3]) is listed as 3 of 10. For the same compound, the “PCR + Cx: mice PCR-positive and culture-positive (footnote c)” value (HIV-1 [3]) was 4/8 and 4, the “PCR + Cx: mice PCR-positive but culture-negative (footnote b)” value (HIV-1 [3]) was 4/8 and 3 and the “PCR Only: PCR- mice/analyzed” value (HIV-1 [3]) was 2/2. For the same compound, the “Peritoneal Lavage Cells PCR+ (mice positive/analyzed)” value (HIV-1 [3]) was 7/10, the “Peritoneal Lavage and Spleen Mixed Cx+ (cultures positive/analyzed)” value (HIV-1 [3]) was 4/8 and the “Spleen Cells PCR+ (mice positive/analyzed)” value (HIV-1 [3]) was 5/10. The IC50 [4] was 1.5 µM.
